Test results reported in US6924278B2, “Aroyl-piperazine derivatives, their preparation and their use as tachykinin antagonists” (Fujisawa Pharmaceutical Co., Ltd., priority 1997, dated 2005).

With Cl.Cl.O=C(c1cc(C(F)(F)F)cc(C(F)(F)F)c1)N1CCN(CC#Cc2cccnc2)C[C@H]1Cc1c[nH]c2ccccc12 the melting point was 180 to 190 °C.
In the case of Cl.Cl.O=C(c1cc(Cl)cc(Cl)c1)N1CCN(CC#CCN2CCOCC2)C[C@H]1Cc1ccc2ccccc2c1, the melting point is reported as 171 °C (dec.).
In the case of Cl.Cl.O=C(c1cc(Cl)cc(Cl)c1)N1CCN(CC#CCN2CCSCC2)C[C@H]1Cc1ccc(C(F)(F)F)cc1, the melting point is reported as 172 °C (dec.).
With COc1ccc(C#CCN2CCN(C(=O)c3cc(C(F)(F)F)cc(C(F)(F)F)c3)[C@H](Cc3ccc(C)c(C)c3)C2)cn1.Cl.Cl the melting point was 160 to 170 °C.
For COc1ccc(C#CCN2CCN(C(=O)c3cc(C(F)(F)F)cc(C(F)(F)F)c3)[C@H](Cc3c[nH]c4ccccc34)C2)cn1.Cl.Cl, the melting point was 183 to 189 °C.
Cc1ccc(C[C@@H]2CN(CCCc3ccccn3)CCN2C(=O)c2cc(C(F)(F)F)cc(C(F)(F)F)c2)cc1C.Cl.Cl showed a melting point of 120 to 130 °C.
With Cl.Cl.O=C(c1cc(C(F)(F)F)cc(C(F)(F)F)c1)N1CCN(CCCc2cccnc2)C[C@H]1Cc1c[nH]c2ccccc12 the melting point was 150 to 160 °C.
COc1ccncc1C#CCN1CCN(C(=O)c2cc(C(F)(F)F)cc(C(F)(F)F)c2)[C@H](Cc2ccc(C)c(C)c2)C1.Cl.Cl showed a melting point of 150 to 153 °C.
COc1ccncc1CCCN1CCN(C(=O)c2cc(C(F)(F)F)cc(C(F)(F)F)c2)[C@H](Cc2c[nH]c3ccccc23)C1.Cl.Cl gave a melting point of 165 to 170 °C.
With COc1ccncc1CCCN1CCN(C(=O)c2cc(C(F)(F)F)cc(C(F)(F)F)c2)[C@H](Cc2ccc(C)c(C)c2)C1.Cl.Cl the melting point was 159 to 168 °C.
With Cl.Cl.Nc1ccc(C#CCN2CCN(C(=O)c3cc(C(F)(F)F)cc(C(F)(F)F)c3)[C@H](Cc3c[nH]c4ccccc34)C2)cn1 the melting point was 190 to 195 °C.
In the case of Cc1ccc(C[C@@H]2CN(C/C=C\c3cccnc3)CCN2C(=O)c2cc(C(F)(F)F)cc(C(F)(F)F)c2)cc1C.Cl.Cl, the melting point is reported as 170 to 174 °C.
For Cl.Cl.O=C(c1cc(C(F)(F)F)cc(C(F)(F)F)c1)N1CCN(CCCCc2ccccn2)C[C@H]1Cc1c[nH]c2ccccc12, the melting point was 155 to 160 °C.
Work on Cl.Cl.O=C(c1cc(C(F)(F)F)cc(C(F)(F)F)c1)N1CCN(CC#Cc2ccccn2)C[C@H]1Cc1c[nH]c2ccccc12 yielded a melting point of 160 to 166 °C.
With Cl.Cl.O=C(c1cc(C(F)(F)F)cc(C(F)(F)F)c1)N1CCN(CCC#Cc2cccnc2)C[C@H]1Cc1c[nH]c2ccccc12 the melting point was 175 to 185 °C.
COC[C@@H]1COCCN1C/C=C/CN1CCN(C(=O)c2cc(C(F)(F)F)cc(C(F)(F)F)c2)[C@H](Cc2ccc(C)c(C)c2)C1.Cl.Cl showed a melting point of 240 to 250 °C.
Compound Cc1ccc(C[C@@H]2CN(CC#CCN3CCOC[C@H]3C(=O)N(C)C)CCN2C(=O)c2cc(C(F)(F)F)cc(C(F)(F)F)c2)cc1C.Cl.Cl has a melting point of 150 to 160 °C.
Compound CC[C@@H]1COCCN1CC#CCN1CCN(C(=O)c2cc(C(F)(F)F)cc(C(F)(F)F)c2)[C@H](Cc2c[nH]c3ccccc23)C1.Cl.Cl has a melting point of 176 to 180 °C.
With COC[C@H]1CCCN1CC#CCN1CCN(C(=O)c2cc(C(F)(F)F)cc(C(F)(F)F)c2)[C@H](Cc2c[nH]c3ccccc23)C1.Cl.Cl the melting point was 190 to 195 °C.
Work on COC[C@@H]1COCCN1CCCN1CCN(C(=O)c2cc(C(F)(F)F)cc(C(F)(F)F)c2)[C@H](Cc2ccc(C)c(C)c2)C1.Cl.Cl yielded a melting point of 80 to 100 °C.
For COC[C@H]1COCCN1CCN1CCN(C(=O)c2cc(C(F)(F)F)cc(C(F)(F)F)c2)[C@H](Cc2c[nH]c3ccccc23)C1.Cl.Cl, the melting point was 175 to 185 °C.
COc1cccc(CC2CN(CC#CCN3CCOCC3(C)C)CCN2C(=O)c2cc(C(F)(F)F)cc(C(F)(F)F)c2)c1OC.Cl.Cl (stereo not drawn) showed a melting point of 170 °C.
CNc1cc(C(=O)N2CCN(CC#CCN3CCOCC3(C)C)C[C@H]2Cc2c[nH]c3ccccc23)cc(C(F)(F)F)c1.Cl.Cl showed a melting point of 215 to 230 °C.
CN(C)c1cccc(CC2CN(CC#CCN3CCOCC3(C)C)CCN2C(=O)c2cc(C(F)(F)F)cc(C(F)(F)F)c2)c1.Cl.Cl.Cl (stereo not drawn) gave a melting point of 205 to 210 °C.
